In brackets after ≈: the same amount, converted by molar mass. Several values for one entry are separate records, joined by “and”; a condition that tells them apart may be missing. Equal entries are not always repeated. Where two headings read alike, the source gives them in different places. Peptide text beside a SMILES is read from it.

One assay deals with S. aureus ATCC 25923. In words: MIC, broth microdilution (CLSI), ATCC reference strain. The class given is cell-based, Staphylococcus aureus. As for the experimental part:
(§1) The minimum inhibitory concentration (MIC) of synthetic peptides was determined using the broth microdilution method in cation-adjusted Mueller-Hinton broth (MHB2 – Sigma-Aldrich, St. Louis, MO, United States), according to the recommendations of the Clinical and Laboratory Standards Institute ([CLSI, 2012]), against four reference strains, namely, P. aeruginosa ATCC 27853, E. coli ATCC 25922, S. aureus ATCC 25923 and Enterococcus faecalis ATCC 29212. MIC values of peptide 3.1-PP4 were also determined against MDR clinical isolates of P. aeruginosa (PA002, PA004, Pa3, Pa4), E. coli (Ec1, Ec2, EC001, EC002, EC003) and K. pneumoniae (KP004, KP007, KP010). The peptides were tested in the concentration range of 1–1024 μg/mL. The minimum bactericidal concentration (MBC) was determined as previously reported ([Bessa et al., 2018]). According to CLSI guidelines for antimicrobial susceptibility testing, MIC values were determined for all peptides against ATCC reference strains of two Gram-positive (S. aureus ATCC 25923 and E. faecalis ATCC 29212), and two Gram-negative (P. aeruginosa ATCC 27853 and E. coli ATCC 25922) bacterial species, and are shown in Table 2.

Assay [1] concerns MDR clinical isolates of P. aeruginosa (PA002, PA004, Pa3, Pa4). The class given is cell-based, Pseudomonas aeruginosa. As for the experimental part:
as §1, with “2018]).” for “2018]). According to CLSI guidelines for antimicrobial susceptibility testing, MIC values were determined for all peptides against ATCC reference strains of two Gram-positive (S. aureus ATCC 25923 and E. faecalis ATCC 29212), and two Gram-negative (P. aeruginosa ATCC 27853 and E. coli ATCC 25922) bacterial species, and are shown in Table 2.”
(§2) In view of the above results, peptide conjugate 3.1-PP4 was selected for further investigation of its activity against MDR isolates of three Gram-negative bacterial species, namely, P. aeruginosa (four isolates), E. coli (five isolates), and K. pneumoniae (four isolates), whose antimicrobial resistance patterns are provided in the Supplementary Table S1. MDR isolates of K. pneumoniae were included in this analysis given (i) the high prevalence of K. pneumoniae in HAI ([Zheng et al., 2017]), (ii) that K. pneumoniae isolates used are carbanepem-resistant strains of an Enterobacteriaceae species, meaning that they are class 1 priority pathogens for the research and development of new antibiotics according to the WHO ([WHO, 2017]), and (iii) K. pneumoniae bacteria are usually better biofilm producers than the other Enterobacteriaceae species used, E. coli ([Reisner et al., 2006]). MIC values obtained are shown in Table 3, and confirm peptide’s 3.1-PP4 potent action against Gram-negative bacteria, including MDR isolates, with a selectivity index (SI), i.e., ratio of IC50 values for mammalian vs. bacterial cells, ranging from ca. 9–69. In fact, for P. aeruginosa and E. coli, MIC against MDR isolates were in the same range, or below, of those previously found for ATCC reference strains (Table 2). For K. pneumoniae, MIC values ranged between 1 and 4 μM, which is remarkable.

The subject of assay [2] is MDR clinical isolates of E. coli (Ec1, Ec2, EC001, EC002, EC003). The format is cell-based, Escherichia coli. The note with it: MHB2. As for the experimental part:
as §1, with “2018]).” for “2018]). According to CLSI guidelines for antimicrobial susceptibility testing, MIC values were determined for all peptides against ATCC reference strains of two Gram-positive (S. aureus ATCC 25923 and E. faecalis ATCC 29212), and two Gram-negative (P. aeruginosa ATCC 27853 and E. coli ATCC 25922) bacterial species, and are shown in Table 2.”
as §2

For assay [3], the system named is preformed biofilms of MDR K. pneumoniae isolates. In words: Effect on 24 h preformed biofilms (OD600 of planktonic phase). The note with it: 20 × MIC, vs non-treated biofilm. The class given is cell-based, Klebsiella pneumoniae. As for the experimental part: The efficacy of peptide 3.1-PP4 on 24 h preformed biofilms of PA002, PA004, KP004, KP007, and KP010 was also evaluated ([Gomes et al., 2014]). Briefly, biofilms were grown in TSB from a starting inoculum of 1 × 10^6 CFU/mL in 96-well microtiter plates. […] The optical density at 600 nm (OD600) was measured at time 0 and after incubation for 24 h at 37°C. The reduction in the biofilm proliferation was calculated in comparison to the respective non-treated biofilms. Two independent experiments were performed in triplicate.
In the case of control biofilms, the second 24 h growth period occurred in the absence of the peptide. Based on the apparent higher efficiency of peptide 3.1-PP4 to inhibit the formation of K. pneumoniae than P. aeruginosa biofilms, only two MDR isolates of the latter were included in this assay, whereas three MDR K. pneumoniae were tested. Optical density of the planktonic phase, as a measure of biofilm proliferation, was reduced in all peptide-treated biofilms, ranging from 3 to 21% reduction on P. aeruginosa isolates, and from 34 to 56% reduction on K. pneumoniae isolates (Table 4).

The subject of assay [4] is preformed biofilm of MDR P. aeruginosa PA004. In words: Biofilm metabolic activity (MTT). The settings on record: isolate PA004, 24 h preformed biofilm, 20 × MIC, 24 h at 37°C, absorbance 570 nm. The format is cell-based, Pseudomonas aeruginosa. The protocol:
The respective control biofilms were equally formed but in absence of the peptide (only TSB medium was used). Afterward, the bacterial metabolic activity of biofilms was quantified after adding 3-(4,5-dimethylthiazole-2-yl)-2,5-diphenyl tetrazolium bromide (MTT, 0.5 mg/mL – Sigma-Aldrich, St. Louis, MO, United States) for 3 h at 37°C in the dark. DMSO was used to dissolve the formazan crystals formed and the absorbance at 570 nm was measured. Two independent experiments were performed in four replicates.
The influence of the peptide on the metabolic activity of preformed biofilms of one P. aeruginosa (PA004) and three K. pneumoniae (KP004, KP007, and KP010) isolates was also assessed, through a standard MTT assay.

Assay [5] concerns MDR isolates of P. aeruginosa, E. coli and K. pneumoniae. Kind of assay: Minimum bactericidal concentration (MBC). The format is cell-based. The note with it: all MDR isolates tested. As for the experimental part:
as §1, with “2018]).” for “2018]). According to CLSI guidelines for antimicrobial susceptibility testing, MIC values were determined for all peptides against ATCC reference strains of two Gram-positive (S. aureus ATCC 25923 and E. faecalis ATCC 29212), and two Gram-negative (P. aeruginosa ATCC 27853 and E. coli ATCC 25922) bacterial species, and are shown in Table 2.”
In view of the above results, peptide conjugate 3.1-PP4 was selected for further investigation of its activity against MDR isolates of three Gram-negative bacterial species, namely, P. aeruginosa (four isolates), E. coli (five isolates), and K. pneumoniae (four isolates), whose antimicrobial resistance patterns are provided in the Supplementary Table S1. […]

`CC(C)C[C@H](NC(=O)[C@H](Cc1c[nH]c2ccccc12)NC(=O)[C@H](CCCCN)NC(=O)[C@H](CC(C)C)NC(=O)[C@H](CC(C)C)NC(=O)[C@H](CCCCN)NC(=O)[C@@H](N)CCCCN)C(=O)N[C@@H](CC(C)C)C(=O)N[C@@H](CCCCN)C(=O)N[C@@H](CC(C)C)C(=O)N[C@@H](CC(C)C)C(=O)N[C@@H](CCCCN)C(=O)N[C@H](C(=O)N[C@H](C(=O)N[C@@H](CCCCN)C(=O)N[C@@H](CO)C(N)=O)[C@@H](C)O)[C@@H](C)O` [Peptide 3.1-PP4] (H-KKLLKWLLKLLKTTKS-NH2; N-terminus assumed): the MIC (as a rule, the smallest concentration in the dilution series that meets the test's criterion for growth inhibition) was 16 µM against S. aureus ATCC 25923 (ATCC 25923); 32 µg/mL in the assay on S. aureus ATCC 25923 (S. aureus ATCC 25923, broth microdilution in MHB2, CLSI, range tested 1–1024 μg/mL); 4 µg/mL in assay [1] (MDR P. aeruginosa isolate PA002, MHB2); 2 μg/mL and 1 μM in assay [1] (MDR P. aeruginosa isolate PA004, MHB2); 2 μg/mL and 1 μM in assay [1] (MDR P. aeruginosa isolate Pa3, MHB2); 2 μg/mL and 1 μM in assay [1] (MDR P. aeruginosa isolate Pa4, MHB2). Further, the MIC was 2 µM in assay [1] (MDR clinical isolates of (PA002, PA004, Pa3, Pa4)); 2 μg/mL and 1 μM in assay [2] (MDR E. coli isolate EC001); 2 μg/mL and 1 μM in assay [2] (MDR E. coli isolate EC002); 1 µg/mL (≈ 0.515 µM) in assay [2] (MDR E. coli isolate EC003); 4 µg/mL (≈ 2.06 µM) in assay [2] (MDR E. coli isolate Ec1); 2 μg/mL and 1 μM in assay [2] (MDR E. coli isolate Ec2). For the same compound, the “% reduction in biofilm proliferation upon treatment” value is 56% in assay [3] (isolate KP004, 24 h preformed biofilm); 34% in assay [3] (isolate KP007, 24 h preformed biofilm); 49% in assay [3] (isolate KP010, 24 h preformed biofilm). The “% reduction of metabolic activity in peptide-treated biofilms” value in assay [4] is reported as 8.3%. For the same compound, the “minimal bactericidal concentrations (MBC)” value in assay [5] is listed as “match the MIC in all cases”.

(Values after PMC6710338, “Turning a Collagenesis-Inducing Peptide Into a Potent Antibacterial and Antibiofilm Agent Against Multidrug-Resistant Gram-Negative Bacteria” (Frontiers in Microbiology, 2019).)
